According to patent US7297460B2, “Radiation curable ink compositions suitable for ink-jet printing” (Agfa-Gevaert, priority 2003, dated 2007):

Assay: Solubility of invention compounds in reactive diluents and oligomers
Type: physicochemical

C=C(C)C(=O)OCCC[Si]12O[Si]3(CCCOC(=O)C(=C)C)O[Si]4(CCCOC(=O)C(=C)C)O[Si](CCCOC(=O)C(=C)C)(O1)O[Si]1(CCCOC(=O)C(=C)C)O[Si](CCCOC(=O)C(=C)C)(O2)O[Si](CCCOC(=O)C(=C)C)(O3)O[Si](CCCOC(=O)C(=C)C)(O4)O1 [I.10]
50 wt %: Solubility in CN501 (in CRAYNOR CN501, amino-modified polether acrylate, * footnote: complete solubility after addition of a very small amount of CH2Cl2) | Solubility in TMPTA (in TMPTA = trihydroxymethylpropane triacrylate, * / # footnotes: dissolved after addition of a very small amount of CH2Cl2) | Solubility in TPGDA (in TPGDA = tri(propyleneglycol) diacrylate, * / # footnotes: dissolved after addition of a very small amount of CH2Cl2)
